Data: patent US20050233361A1, “PPARdelta assay” (priority 2004, published 2005)

Assays:
[1] = test system: ANGPTL4 gene expression; assay: ANGPTL4 gene expression in C2C12 cells by Affymetrix micro-arrays; type: cell-based; details: C2C12 mouse muscle cells, 20 hours, vs control = 1.00
Protocol: Cell culture: C2C12 cells (ATCC: CRL1772)
Cells were cultured in DMEM (5 mM glucose) supplemented with 10% heat-inactivated fetal calf serum (FCS). Complete medium was filtered through 0.2 μm pores before use. Differentiation was performed in 6 well dishes by serum depleting the medium (DMEM High Glucose, 2% FCS) when cells reach confluency. Cell cultures were then incubated for 5 days at 37° C. in a 90%-humidified and 95%-air-5%-CO2 sterile atmosphere to allow differentiation.
PPAR Ligands were dissolved in 100% DMSO and added to medium to adjust 0.1% (v/v) DMSO final concentration and cells were incubated with ligands for 20 hours under normal growth conditions. Three replicates were done for each condition.
RNA extraction procedure has been performed with Qiagen QIAschredder and RNeasy kits.
Approximately 1*106 pelleted cells per sample were resuspended in 350 μl guanidine thiocyanate containing RLT. Samples were loaded on a QIAshredder-column and centrifuged at full speed for 2 minutes to homogenize the lysates. After adding 350 μl ethanol to the flow-through for better binding conditions, samples were applied to RNeasy spin. For the first wash step 350 μl RW1 buffer were pipeted into the column. Then 10 μL DNase solution gently mixed with 70 μl RDD buffer were applied onto the column and incubated for 15 minutes at room temperature to remove genomic DNA. […]

[2] = test system: ANGPTL4 gene expression; assay: ANGPTL4 gene expression in C2C12 cells by qPCR; type: cell-based; details: C2C12 mouse muscle cells, S12 reference, vs control = 1
Protocol: The culturing of the C2C12 mouse muscle cells, RNA extraction, cDNA synthesis and purifications were performed as described in Example 1.
RT-PCR was performed with the Quantitech SYBR Green kit from Qiagen according to the manufacturer's manual. Each component were added to 96 well plate: 25 μl master mix, 0.16 μl of each primer (100 μM stock solution), 22.7 μl H2O and 2 μl cDNA.
The program consists of three different steps: initial denaturation of template and heat-activation of the Taq DNA polymerase (95° C., 15 min), cycling (95° C. denaturation, 60° C. primer-template annealing, 72° C. elongation, fluorescence aquisition), and final melting (melting curve 55 to 95° C., measurements in 0.5° C. steps).
The relative quantification is based on the relative expression of the target gene versus a reference gene. […] The cycle number at which threshold fluorescence is reached, is called ct value. […] The relative ct value of a target gene compared to the ct value of an internal reference in the control or untreated sample is expressed as Δct.control=ctreference of control−cttarget of control and in a treated, unknown sample as Δct.sample=ctreference of sample−cttarget of sample.
As internal reference for quantitative studies the ribosomal protein S12 gene expression was used. […] Setting of fluorescence threshold is determined by the light cycler software. The obtained ct values (duplicates for one sample, two samples per condition) were exported into Microsoft Excel and analyzed as described above.

| SMILES | ANGPTL4 gene expression fold changes ([1]; 500 nM) | ANGPTL4 gene expression fold changes ([2]; 500 nM) | ANGPTL4 gene expression fold changes ([1]; 300 μM) | ANGPTL4 gene expression fold changes ([2]; 300 μM) |
| --- | --- | --- | --- | --- |
| Cc1nc(-c2ccc(C(F)(F)F)cc2)sc1C(Sc1ccc(OCC(=O)O)c2ccccc12)C1CCCC1 (racemic) [C, [rac]-(4-{Cyclopentyl-[4-methyl-2-(4-trifluoromethyl-penyl)-thiazol-5-yl]-methylsulfanyl}-naphtalen-1-yloxy}-acetic] | 8.87 fold | 10.06 fold | – | – |
| Cc1cc(N(C)Cc2sc(-c3ccc(C(F)(F)F)cc3)nc2C)ccc1OCC(=O)O [D, (2-Methyl-4-{Methyl-[4-methyl-2-(4-trifluoromethyl-phenyl)-thiazol-5-ylmethyl]-amino}-phenoxy)-acetic acid] | – | 13.51 fold | – | – |
| CC(C)(Oc1ccc(C(=O)c2ccc(Cl)cc2)cc1)C(=O)O [A, 2-[4-(4-Chlorobenzoyl)-phenoxy]-2-methylpropanoic acid] | – | – | 1.99 fold | 2.61 fold |
